For 30 compounds, Kd results are on record in ChEMBL document CHEMBL3991601, “The target landscape of clinical kinase drugs” (Science, 2017).

The target in test [1] is Serine/threonine-protein kinase 38 (Homo sapiens, UniProt Q15208).
Test [2] has as its target Tyrosine-protein kinase Fgr (Homo sapiens, UniProt P09769).
Test [3] addresses Serine/threonine-protein kinase Nek7 (Homo sapiens, UniProt Q8TDX7).
Test [4] concerns the target Serine/threonine-protein kinase 38-like (Homo sapiens, UniProt Q9Y2H1).
Test [5] deals with Dual specificity tyrosine-phosphorylation-regulated kinase 1B (Homo sapiens, UniProt Q9Y463).
Sequence of Dual specificity tyrosine-phosphorylation-regulated kinase 1B (Q9Y463 whole entry): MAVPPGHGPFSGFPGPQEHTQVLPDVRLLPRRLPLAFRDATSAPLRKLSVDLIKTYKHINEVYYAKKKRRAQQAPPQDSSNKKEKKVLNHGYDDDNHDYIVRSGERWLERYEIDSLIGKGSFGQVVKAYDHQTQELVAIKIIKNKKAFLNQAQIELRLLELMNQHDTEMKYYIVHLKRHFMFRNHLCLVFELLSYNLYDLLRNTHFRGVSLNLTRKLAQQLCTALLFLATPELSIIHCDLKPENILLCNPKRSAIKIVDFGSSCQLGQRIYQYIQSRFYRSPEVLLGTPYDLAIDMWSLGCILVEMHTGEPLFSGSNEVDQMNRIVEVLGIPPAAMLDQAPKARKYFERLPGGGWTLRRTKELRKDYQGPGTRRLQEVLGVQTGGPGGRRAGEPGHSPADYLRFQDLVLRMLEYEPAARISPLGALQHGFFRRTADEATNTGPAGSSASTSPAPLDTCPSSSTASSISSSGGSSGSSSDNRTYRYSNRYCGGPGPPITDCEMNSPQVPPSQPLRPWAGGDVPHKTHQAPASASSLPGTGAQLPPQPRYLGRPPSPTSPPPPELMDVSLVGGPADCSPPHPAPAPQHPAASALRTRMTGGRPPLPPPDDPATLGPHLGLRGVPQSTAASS
Test [6] deals with T1, Dual specificity mitogen-activated protein kinase kinase 4 (Homo sapiens, UniProt P45985).
T1 sequence (P45985 whole entry): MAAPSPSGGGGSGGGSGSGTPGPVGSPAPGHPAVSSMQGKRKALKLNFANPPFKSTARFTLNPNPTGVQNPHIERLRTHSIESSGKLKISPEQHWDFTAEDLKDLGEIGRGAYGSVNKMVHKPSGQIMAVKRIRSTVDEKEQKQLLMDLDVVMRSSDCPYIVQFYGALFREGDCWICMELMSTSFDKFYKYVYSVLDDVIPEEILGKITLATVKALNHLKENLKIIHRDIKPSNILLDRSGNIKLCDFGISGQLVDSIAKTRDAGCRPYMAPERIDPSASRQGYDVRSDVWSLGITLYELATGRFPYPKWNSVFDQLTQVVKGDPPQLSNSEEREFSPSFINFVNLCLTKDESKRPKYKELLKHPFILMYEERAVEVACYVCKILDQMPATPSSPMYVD

The target of test [7] is T2, Tyrosine-protein kinase Mer (Homo sapiens, UniProt Q12866).
T2 sequence (Q12866 whole entry): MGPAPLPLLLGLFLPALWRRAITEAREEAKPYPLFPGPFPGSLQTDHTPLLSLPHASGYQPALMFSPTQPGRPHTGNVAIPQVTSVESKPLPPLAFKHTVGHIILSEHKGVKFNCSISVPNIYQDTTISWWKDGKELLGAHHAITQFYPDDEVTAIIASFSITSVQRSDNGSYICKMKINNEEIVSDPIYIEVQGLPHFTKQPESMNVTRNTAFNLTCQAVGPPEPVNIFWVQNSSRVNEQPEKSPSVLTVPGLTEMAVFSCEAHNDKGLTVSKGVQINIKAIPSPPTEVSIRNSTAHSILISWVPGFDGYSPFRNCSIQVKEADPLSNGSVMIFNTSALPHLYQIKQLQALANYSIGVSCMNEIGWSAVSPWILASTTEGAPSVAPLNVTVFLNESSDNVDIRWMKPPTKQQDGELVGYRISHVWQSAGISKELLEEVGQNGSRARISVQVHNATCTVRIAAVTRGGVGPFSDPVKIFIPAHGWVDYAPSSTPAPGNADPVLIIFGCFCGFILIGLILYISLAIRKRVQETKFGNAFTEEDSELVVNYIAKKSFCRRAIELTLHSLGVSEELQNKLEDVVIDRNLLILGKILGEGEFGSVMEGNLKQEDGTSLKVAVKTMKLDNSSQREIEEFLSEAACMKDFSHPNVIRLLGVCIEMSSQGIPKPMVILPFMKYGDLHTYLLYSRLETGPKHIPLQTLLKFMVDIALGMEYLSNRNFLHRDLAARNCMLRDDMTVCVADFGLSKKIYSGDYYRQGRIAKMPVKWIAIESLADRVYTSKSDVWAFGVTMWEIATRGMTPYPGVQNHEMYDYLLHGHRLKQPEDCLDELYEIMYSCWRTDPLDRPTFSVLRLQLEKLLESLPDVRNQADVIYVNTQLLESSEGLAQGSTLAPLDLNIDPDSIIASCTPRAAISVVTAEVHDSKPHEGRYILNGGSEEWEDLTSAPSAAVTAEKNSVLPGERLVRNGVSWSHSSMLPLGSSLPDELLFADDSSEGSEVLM

The target in test [8] is MAP kinase-activated protein kinase 3 (Homo sapiens, UniProt Q16644).
Sequence of MAP kinase-activated protein kinase 3 (Q16644 whole entry): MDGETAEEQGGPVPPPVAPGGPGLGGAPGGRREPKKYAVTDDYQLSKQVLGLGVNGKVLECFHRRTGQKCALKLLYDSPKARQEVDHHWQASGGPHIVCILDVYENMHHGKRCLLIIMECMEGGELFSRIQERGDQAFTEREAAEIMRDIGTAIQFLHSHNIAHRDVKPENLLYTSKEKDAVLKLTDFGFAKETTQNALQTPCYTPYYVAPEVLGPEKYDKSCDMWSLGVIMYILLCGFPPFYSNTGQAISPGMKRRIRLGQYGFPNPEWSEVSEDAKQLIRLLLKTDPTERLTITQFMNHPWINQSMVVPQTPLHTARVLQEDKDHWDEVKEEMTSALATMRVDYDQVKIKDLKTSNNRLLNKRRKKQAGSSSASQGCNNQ
For test [9], the target named is Cyclin-dependent kinase 10 (Homo sapiens, UniProt Q15131).
Sequence of Cyclin-dependent kinase 10 (Q15131 whole entry): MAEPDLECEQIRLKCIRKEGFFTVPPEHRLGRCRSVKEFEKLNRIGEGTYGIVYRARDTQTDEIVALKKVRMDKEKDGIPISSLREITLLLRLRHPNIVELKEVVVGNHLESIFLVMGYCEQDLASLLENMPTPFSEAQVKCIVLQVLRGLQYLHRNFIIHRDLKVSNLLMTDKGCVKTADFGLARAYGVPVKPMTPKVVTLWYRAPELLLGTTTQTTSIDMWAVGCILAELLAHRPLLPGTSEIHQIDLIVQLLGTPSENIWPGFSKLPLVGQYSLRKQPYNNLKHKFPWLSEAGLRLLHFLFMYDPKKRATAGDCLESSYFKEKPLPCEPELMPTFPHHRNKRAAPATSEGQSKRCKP
Test [10] deals with Eukaryotic peptide chain release factor GTP-binding subunit ERF3B (Homo sapiens, UniProt Q8IYD1).
Sequence of Eukaryotic peptide chain release factor GTP-binding subunit ERF3B (Q8IYD1 whole entry): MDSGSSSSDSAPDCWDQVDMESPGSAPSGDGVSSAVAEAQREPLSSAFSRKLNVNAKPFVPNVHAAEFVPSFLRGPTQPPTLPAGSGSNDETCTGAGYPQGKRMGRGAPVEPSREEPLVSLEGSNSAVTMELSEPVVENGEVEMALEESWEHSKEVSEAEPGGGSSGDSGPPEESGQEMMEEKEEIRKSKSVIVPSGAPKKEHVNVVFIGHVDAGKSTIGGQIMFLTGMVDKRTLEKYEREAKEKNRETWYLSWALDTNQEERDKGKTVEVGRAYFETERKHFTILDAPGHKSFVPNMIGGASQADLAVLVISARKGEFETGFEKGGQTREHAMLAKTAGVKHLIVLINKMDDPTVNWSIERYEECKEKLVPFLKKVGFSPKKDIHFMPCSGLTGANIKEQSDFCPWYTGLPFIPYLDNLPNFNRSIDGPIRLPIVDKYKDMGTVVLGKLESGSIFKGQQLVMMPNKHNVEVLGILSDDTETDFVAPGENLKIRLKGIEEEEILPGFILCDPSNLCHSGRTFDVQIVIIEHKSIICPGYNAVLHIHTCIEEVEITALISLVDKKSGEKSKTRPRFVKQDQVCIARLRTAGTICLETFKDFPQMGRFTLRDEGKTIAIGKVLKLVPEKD

SMILES strings stand for the structures. The source made the active and inactive calls. On the calls: in the data inactive means no Kd found up to 30 µM.

Sequence of Serine/threonine-protein kinase Nek7 (Q8TDX7 whole entry): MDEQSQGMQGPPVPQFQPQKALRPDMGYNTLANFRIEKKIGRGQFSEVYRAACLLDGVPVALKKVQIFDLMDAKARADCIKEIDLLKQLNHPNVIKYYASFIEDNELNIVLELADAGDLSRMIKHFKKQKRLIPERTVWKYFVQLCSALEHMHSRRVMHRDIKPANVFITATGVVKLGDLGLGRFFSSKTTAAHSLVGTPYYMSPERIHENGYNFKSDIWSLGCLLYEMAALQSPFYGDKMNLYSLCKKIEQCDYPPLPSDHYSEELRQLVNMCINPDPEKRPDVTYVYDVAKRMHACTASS
Sequence of Serine/threonine-protein kinase 38 (Q15208 whole entry): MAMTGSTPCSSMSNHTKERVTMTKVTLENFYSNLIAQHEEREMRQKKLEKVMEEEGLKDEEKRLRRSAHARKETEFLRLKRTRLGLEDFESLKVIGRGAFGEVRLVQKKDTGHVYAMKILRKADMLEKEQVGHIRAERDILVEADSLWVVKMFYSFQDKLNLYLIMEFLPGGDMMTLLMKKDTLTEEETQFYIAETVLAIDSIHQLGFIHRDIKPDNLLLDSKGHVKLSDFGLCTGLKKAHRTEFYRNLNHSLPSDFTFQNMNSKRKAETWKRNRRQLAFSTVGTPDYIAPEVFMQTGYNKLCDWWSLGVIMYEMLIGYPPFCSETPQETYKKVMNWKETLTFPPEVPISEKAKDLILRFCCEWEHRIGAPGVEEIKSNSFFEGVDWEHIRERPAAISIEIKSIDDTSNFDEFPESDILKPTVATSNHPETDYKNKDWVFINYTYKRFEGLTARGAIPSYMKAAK
Sequence of Tyrosine-protein kinase Fgr (P09769 whole entry): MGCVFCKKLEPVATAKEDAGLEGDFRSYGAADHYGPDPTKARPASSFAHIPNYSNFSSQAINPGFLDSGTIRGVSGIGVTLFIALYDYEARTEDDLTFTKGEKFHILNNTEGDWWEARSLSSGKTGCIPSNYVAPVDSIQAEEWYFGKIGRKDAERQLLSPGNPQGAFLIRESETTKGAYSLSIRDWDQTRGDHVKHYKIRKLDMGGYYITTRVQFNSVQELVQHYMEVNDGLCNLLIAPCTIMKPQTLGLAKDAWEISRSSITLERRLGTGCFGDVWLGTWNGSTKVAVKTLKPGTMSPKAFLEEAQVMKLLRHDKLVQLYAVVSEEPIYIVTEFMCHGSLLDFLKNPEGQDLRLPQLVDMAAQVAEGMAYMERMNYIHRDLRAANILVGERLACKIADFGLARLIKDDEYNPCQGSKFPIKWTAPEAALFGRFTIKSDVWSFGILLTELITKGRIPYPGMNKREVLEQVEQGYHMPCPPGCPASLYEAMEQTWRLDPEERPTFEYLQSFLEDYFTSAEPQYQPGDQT
Sequence of Serine/threonine-protein kinase 38-like (Q9Y2H1 whole entry): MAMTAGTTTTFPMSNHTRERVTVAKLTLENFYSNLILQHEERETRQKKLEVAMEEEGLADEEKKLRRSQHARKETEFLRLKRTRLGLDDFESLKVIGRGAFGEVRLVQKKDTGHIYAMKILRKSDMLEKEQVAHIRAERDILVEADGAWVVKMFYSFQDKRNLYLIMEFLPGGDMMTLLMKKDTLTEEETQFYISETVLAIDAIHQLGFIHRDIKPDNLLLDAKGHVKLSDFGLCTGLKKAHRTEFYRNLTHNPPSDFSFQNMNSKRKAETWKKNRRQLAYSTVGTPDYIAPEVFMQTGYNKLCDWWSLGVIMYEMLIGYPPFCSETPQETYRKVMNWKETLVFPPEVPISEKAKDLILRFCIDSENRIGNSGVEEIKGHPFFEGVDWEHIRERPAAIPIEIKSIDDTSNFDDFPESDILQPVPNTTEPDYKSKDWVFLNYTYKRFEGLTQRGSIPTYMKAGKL

With `C[C@@H](Nc1cc(F)cc(F)c1)c1cc(C(=O)N(C)C)cc2c(=O)cc(N3CCOCC3)oc12` [AZD-8186], the Kd in [1] was > 30 µM (inactive).

For the compound `COc1cc(OC)c(/C=C/S(=O)(=O)Cc2ccc(OC)c(NCC(=O)O)c2)c(OC)c1` [RIGOSERTIB], the Kd in [2], in test [3] and in test [1] was > 30 µM (inactive) throughout.

Regarding `C[C@@H](c1ccc2nccn2c1)n1nnc2ncc(-c3cnn(C)c3)nc21` [SAVOLITINIB], the Kd in [4] was > 30 µM (inactive).

`CN1N=C(N)c2cn([C@@H]3O[C@H](COP(=O)(O)O)[C@@H](O)[C@H]3O)c3ncnc1c23` [TRICIRIBINE PHOSPHATE]: the Kd in test [5], in test [2] and in test [3] was > 30 µM (inactive) each time.

For the compound `CNC(=O)CN1CCC(Oc2cc3c(Nc4cccc(Cl)c4F)ncnc3cc2OC)CC1` [SAPITINIB], the Kd in [6], in test [7] and in test [4] was > 30 µM (inactive) throughout.

In the case of `O=C(c1ccc(F)c(F)c1Nc1ccc(I)cc1F)N1CC(O)([C@@H]2CCCCN2)C1` [COBIMETINIB], the Kd in [6], in test [8], in [3] and in [4] was > 30 µM (inactive) throughout.

With `Cc1nc(N)sc1-c1ccnc(Nc2ccc(N3CCOCC3)cc2)n1` [CYC-116], the Kd in [2], in test [6] and in test [3] was > 30 µM (inactive) in each case.

In the case of `O=C(Nc1cccc(Cl)c1)Nc1ncc(CCNc2ncnc3ccsc23)s1` [SNS-314], the Kd in test [9], in test [10], in [6] and in test [3] was > 30 µM (inactive) throughout.

Regarding `Cc1ccc(-n2nc(C(C)(C)C)cc2NC(=O)NCc2cc(F)ccc2Oc2ccc3c(cnn3CCO)c2)cc1` [PEXMETINIB], the Kd in [6] is > 30 µM (inactive); in test [8], > 30 µM (inactive); in test [7], 2.81 µM; in [3], > 30 µM (inactive); in test [1], > 30 µM (inactive); in [4] it was > 30 µM (inactive).

For the compound `CN1CCN(c2ccc3nc(-c4c(N)c5c(F)cccc5[nH]c4=O)[nH]c3c2)CC1` [DOVITINIB], the Kd in [9] is > 30 µM (inactive).

Turning to `COc1ccc(-c2ccc3c(N4CCOC[C@@H]4C)nc(N4CCOC[C@@H]4C)nc3n2)cc1CO` [AZD-8055], the Kd in test [5], in test [6], in [3] and in test [4] was > 30 µM (inactive) throughout.

Take `COc1cc2nccc(Oc3ccc(NC(=O)Nc4cc(C)on4)c(Cl)c3)c2cc1OC` [TIVOZANIB]: the Kd in test [9], in test [6], in test [7], in test [3] and in test [4] was > 30 µM (inactive) in each case.

In the case of `CN1CCC(CNc2ccc3ncc(-c4cccc(OC(F)(F)F)c4)n3n2)CC1` [SGI-1776], the Kd in test [8], in test [7] and in test [3] was > 30 µM (inactive) in each case.

In the case of `Cn1ncc(Cl)c1-c1cc(C(=O)N[C@H](CN)Cc2cccc(F)c2)sc1Cl` [AFURESERTIB], the Kd in [3] is > 30 µM (inactive).

In the case of `OCCn1cc(-c2cnc3nnn(Cc4ccc5ncccc5c4)c3n2)cn1` [PF-04217903], the Kd in test [2], in [10], in [6], in test [8], in test [7] and in test [3] was > 30 µM (inactive) throughout. For the same compound, the Kd in test [1] and in test [4] was > 30 µM (inactive) each time.

On to `COCCNCc1ccc(-c2cc3nccc(Oc4ccc(NC(=S)NC(=O)Cc5ccc(F)cc5)cc4F)c3s2)nc1` [GLESATINIB], for which the Kd in [6], in [8] and in test [3] was > 30 µM (inactive) in each case.

Consider `Cn1cc(-c2ccc3nnc(C(F)(F)c4ccc5ncccc5c4)n3n2)cn1` [JNJ-38877605], for which the Kd in test [9], in [2] and in test [3] was > 30 µM (inactive) each time.

With `Cc1cc([C@@H](C)Nc2ccccc2C(=O)O)c2nc(N3CCOCC3)cc(=O)n2c1` [AZD-6482], the Kd in test [6], in [7], in test [1] and in test [4] was > 30 µM (inactive) throughout.

Regarding `CN1CC[C@@H](c2c(O)cc(O)c3c(=O)cc(-c4ccccc4Cl)oc23)[C@@H]1CO`, the Kd in test [7], in test [3] and in [4] was > 30 µM (inactive) each time.

`N[C@@H]1CCCN(c2c(/C=C3\SC(=O)NC3=O)cccc2-c2ccccc2)C1`: the Kd in test [10] was > 30 µM (inactive).

For the compound `C[C@@H]1CN(Cc2ccc(F)cc2)[C@@H](C)CN1C(=O)c1cc2c(C(=O)C(=O)N(C)C)cn(C)c2cc1Cl` [TALMAPIMOD], the Kd in test [8], in [1] and in test [4] was > 30 µM (inactive) in each case.

For the compound `CN1CCC(COc2cnc(-c3cccc(Cn4nc(-c5cccc(C#N)c5)ccc4=O)c3)nc2)CC1` [TEPOTINIB], the Kd in [6], in test [3] and in [4] was > 30 µM (inactive) in each case.

Take `CCn1c(=O)c(-c2cc[nH]n2)cc2c(C)nc(N)nc21` [VOXTALISIB]: the Kd in test [10] and in [1] was > 30 µM (inactive) each time.

With `Cn1cc(-c2ccc(F)c(C(F)(F)F)c2)nc1C1CCN(c2ncnc3[nH]ncc23)CC1` [LY-2584702], the Kd in test [1] is > 30 µM (inactive).

In the case of `CNC(=O)c1ccc(C)c(-n2c(C)cc(OCc3ccc(F)cc3F)c(Br)c2=O)c1` [PH-797804], the Kd in test [2] and in [1] was > 30 µM (inactive) throughout.

Turning to `Cc1c(F)cc(C(=O)NC2CC2)cc1-c1ccc(C(=O)NCC(C)(C)C)cn1` [LOSMAPIMOD], the Kd in [7], in test [1] and in test [4] was > 30 µM (inactive) each time.

In the case of `C=CC(=O)N1CCC(Oc2cc3c(Nc4ccc(Cl)c(Cl)c4F)ncnc3cc2OC)CC1` [POZIOTINIB], the Kd in test [1] and in test [4] was > 30 µM (inactive) each time.

As for `O=c1sn(-c2cccc3ccccc23)c(=O)n1Cc1ccccc1` [TIDEGLUSIB], the Kd in test [9], in test [10], in test [7] and in test [4] was > 30 µM (inactive) each time.

As to `CO[C@H]1C[C@@H]2CC[C@@H](C)[C@@](O)(O2)C(=O)C(=O)N2CCCC[C@H]2C(=O)O[C@H]([C@H](C)C[C@@H]2CC[C@@H](OCCO)[C@H](OC)C2)CC(=O)[C@H](C)/C=C(\C)[C@@H](O)[C@@H](OC)C(=O)[C@H](C)C[C@H](C)/C=C/C=C/C=C/1C` [EVEROLIMUS], the Kd in test [2], in test [10] and in [3] was > 30 µM (inactive) each time.

On to `CN(C)C(=O)c1cc2cnc(Nc3ccc(N4CCNCC4)cn3)nc2n1C1CCCC1` [RIBOCICLIB], for which the Kd in test [6] and in test [3] was > 30 µM (inactive) throughout.
